The nature of test [1]: Antioxidant activity assessed as ABTS radical scavenging activity after 20 min by ELISA plate reader analysis. It counts as functional.
The test system of test [2] is Radical scavenging activity. As to the kind of experiment: Antioxidant activity assessed as DPPH radical scavenging activity after 20 min by ELISA plate reader analysis. The class given is functional. On the technique in general: The DPPH test is a chemical assay of radical scavenging.
Test [3] relates to MCF7. As to the kind of experiment: Anticancer activity against Homo sapiens (human) MCF-7 cells assessed as inhibition of cell survival after 24 hr by MTT assay. The class given is functional, cell-based. Conditions: MCF7, 24 h. Background: Tetrazolium dyes change colour on reduction, which living cells bring about.
The subject of test [4] is MCF7. As to the kind of experiment: Anticancer activity against Homo sapiens (human) MCF-7 cells assessed as cell survival at 100 ug/ml after 24 hr by MTT assay (reference value: 100%). The class given is functional. Conditions: MCF7, 24 h, read-out: Survival.
In test [5] the test system is MCF7. As to the kind of experiment: Anticancer activity against Homo sapiens (human) MCF-7 cells assessed as cell survival at 10 ug/ml after 24 hr by MTT assay (reference value: 100%). It counts as functional. Particulars: MCF7, 24 h, read-out: Survival.
For test [6], the system named is MCF7. As to the kind of experiment: Anticancer activity against Homo sapiens (human) MCF-7 cells assessed as cell survival at 1 ug/ml after 24 hr by MTT assay (reference value: 100%). It counts as functional. Conditions: MCF7, 24 h, read-out: Survival.
Test [7] relates to MCF7. As to the kind of experiment: Anticancer activity against Homo sapiens (human) MCF-7 cells assessed as cell survival at 0.1 ug/ml after 24 hr by MTT assay (reference value: 100%). Particulars: MCF7, 24 h, read-out: Survival. It counts as functional.
The subject of test [8] is MCF7. As to the kind of experiment: Induction of apoptotic DNA fragmentation in Homo sapiens (human) MCF-7 cells assessed as increase in olive tail moment at 0.1 uM after 24 hr by comet assay. The class given is functional, cell-based.
The subject of test [9] is MCF7. As to the kind of experiment: Induction of apoptotic DNA fragmentation in Homo sapiens (human) MCF-7 cells assessed as increase in tail length at 0.1 uM after 24 hr by comet assay. It counts as functional, cell-based.
The test system of test [10] is MCF7. Kind of test: Induction of apoptotic DNA fragmentation in Homo sapiens (human) MCF-7 cells assessed as formation of comets at 54 ug/ml after 24 hr by comet assay. The class given is functional, cell-based.
In test [11] the test system is MCF7. As to the kind of experiment: Induction of apoptotic DNA fragmentation in Homo sapiens (human) MCF-7 cells assessed as increase in olive tail moment after 24 hr by comet assay. It counts as functional, cell-based.
Test [12] concerns MCF7. Kind of test: Induction of apoptotic DNA fragmentation in Homo sapiens (human) MCF7 cells assessed as increase in tail length after 24 hr by comet assay. It counts as functional, cell-based.
Test [13] has as its system MCF7. As to the kind of experiment: Induction of apoptotic DNA fragmentation in Homo sapiens (human) MCF-7 cells assessed as formation of comets at 50 ug/ml after 24 hr by comet assay. It counts as functional, cell-based.

≈ marks a conversion by molar mass, not a printed value. Calls of active or inactive are those of the source. The rule behind the calls is not given here.

As usually defined, the IC50 is the point on the concentration scale where inhibition reaches its midpoint. In the case of `O=C1O[C@H]([C@@H](O)CO)C(O)=C1O` [ASCORBIC ACID], the IC50 in [1] was found to be 31.53 µg/mL (≈ 179 µM); in test [2], 18.74 µg/mL (≈ 106 µM).

Take `O=C1CSC(c2c[nH]nc2-c2ccc(Cl)cc2)N1n1c(S)nnc1COc1ccc2ccccc2c1` (stereo not given): in [3], the IC50 came out at 100 µg/mL (≈ 187 µM). For the same compound, the viability at 100 µg/mL in [4] worked out at 50.7%. In addition, the viability at 10 µg/mL in test [5] amounted to 81.4%. Moreover, the viability at 1 µg/mL in [6] is 100%. For the same compound, in test [7], the viability at 0.1 µg/mL was found to be 99.7%.

`COc1ccc(-c2n[nH]cc2C2SCC(=O)N2n2c(S)nnc2COc2ccccc2)cc1` (stereo not given): in test [3], the IC50 came out at 85 µg/mL (≈ 177 µM). The viability at 100 µg/mL in [4] came to 46.5%. Moreover, the viability at 10 µg/mL in test [5] was 96.8%. In test [6], the viability at 1 µg/mL amounted to 100%. Also, the viability at 0.1 µg/mL in test [7] amounted to 100%.

Regarding `COc1cccc2c1C(=O)c1c(O)c3c(c(O)c1C2=O)C[C@@](O)(C(=O)CO)C[C@@H]3O[C@H]1C[C@H](N)[C@H](O)[C@H](C)O1`, the result in [8], in test [9] and in test [10] was Active.

Consider `Cc1ccccc1OCc1nnc(S)n1N1C(=O)CSC1c1c[nH]nc1-c1ccc(Cl)cc1` (stereo not given), for which the figures for the IC50 in test [1], in [2] and in [3] were 73.03 µg/mL (≈ 146 µM), 31.52 µg/mL (≈ 63.2 µM) and 22 µg/mL (≈ 44.1 µM), respectively. Also, the Activity result in test [11] and in [12] was “Dose-dependent effect” throughout. Further, the outcome in [13] was Active. Moreover, in test [4], the viability at 100 µg/mL was determined as 13.2%. Besides, in [5], the viability at 10 µg/mL stood at 67.6%. Further, in test [6], the viability at 1 µg/mL came to 80.7%. Also, the viability at 0.1 µg/mL in [7] was 70%.

With `O=C1CSC(c2c[nH]nc2-c2ccc(Cl)cc2)N1n1c(S)nnc1COc1cccc2ccccc12` (stereo not given), in test [3], the IC50 was 100 µg/mL (≈ 187 µM). The viability at 100 µg/mL in [4] is 51.8%. For the same compound, the viability at 10 µg/mL in [5] worked out at 60.3%. In test [6], the viability at 1 µg/mL is 70.5%. The viability at 0.1 µg/mL in test [7] is 101%.

Consider `Cc1ccccc1OCc1nnc(S)n1N1C(=O)CSC1c1c[nH]nc1-c1ccc(F)cc1` (stereo not given), for which the IC50 in test [3] was above 100 µg/mL. Moreover, the viability at 100 µg/mL in test [4] was determined as 62.1%. Moreover, in test [5], the viability at 10 µg/mL is 92.5%. For the same compound, the viability at 1 µg/mL in [6] turned out to be 83.1%. Also, the viability at 0.1 µg/mL in [7] turned out to be 81.4%.

On to `O=C1CSC(c2c[nH]nc2-c2ccc(F)cc2)N1n1c(S)nnc1COc1ccccc1` (stereo not given), for which the IC50 in test [1] amounted to 143.67 µg/mL (≈ 307 µM); in test [2] it was 27.16 µg/mL (≈ 58 µM); in [3] it was 30 µg/mL (≈ 64 µM). Further, the Activity entry in [11] and in [12] was “Dose-dependent effect” in each case. Also, the outcome in [13] was Active. In addition, the viability at 100 µg/mL in test [4] was determined as 33.6%. The viability at 10 µg/mL in [5] is 76.5%. In test [6], the viability at 1 µg/mL worked out at 69.4%. Also, in [7], the viability at 0.1 µg/mL amounted to 65.9%.

As for `O=C1CSC(c2c[nH]nc2-c2ccc(F)cc2)N1n1c(S)nnc1COc1ccc2ccccc2c1` (stereo not given), in test [3], the IC50 is above 100 µg/mL. Moreover, in test [4], the viability at 100 µg/mL turned out to be 96.5%. Moreover, the viability at 10 µg/mL in test [5] came out at 99.8%. For the same compound, the viability at 1 µg/mL in test [6] was 100%. Besides, in [7], the viability at 0.1 µg/mL was 100%.

For `Cc1ccc(OCc2nnc(S)n2N2C(=O)CSC2c2c[nH]nc2-c2ccc(F)cc2)cc1` (stereo not given), in [3], the IC50 was above 100 µg/mL. Besides, in test [4], the viability at 100 µg/mL is 71.4%. Moreover, in test [5], the viability at 10 µg/mL came to 87.5%. For the same compound, the viability at 1 µg/mL in test [6] came out at 74.7%. In addition, the viability at 0.1 µg/mL in test [7] was found to be 80.8%.

In the case of `COc1ccc(-c2n[nH]cc2C2SCC(=O)N2n2c(S)nnc2COc2ccc(C)cc2)cc1` (stereo not given), the IC50 in test [3] is 78 µg/mL (≈ 158 µM). Moreover, the viability at 100 µg/mL in [4] amounted to 43.7%. For the same compound, in [5], the viability at 10 µg/mL was 90.2%. For the same compound, the viability at 1 µg/mL in [6] was determined as 95.4%. The viability at 0.1 µg/mL in test [7] was found to be 95%.

For `COc1ccc(-c2n[nH]cc2C2SCC(=O)N2n2c(S)nnc2COc2ccccc2C)cc1` (stereo not given), the IC50 turned out to be 165.78 µg/mL (≈ 335 µM) in test [1], 46.95 µg/mL (≈ 94.9 µM) in test [2] and 29 µg/mL (≈ 58.6 µM) in test [3]. Moreover, the Activity result in [11] and in test [12] was “Dose-dependent effect” each time. The outcome in test [13] was Active. Further, the viability at 100 µg/mL in test [4] was determined as 25.4%. Also, the viability at 10 µg/mL in test [5] is 84.7%. Further, in test [6], the viability at 1 µg/mL was 87%. The viability at 0.1 µg/mL in test [7] is 81.5%.

For the origin of these results see ChEMBL document CHEMBL3045884, “Synthesis, characterization, anticancer, and antioxidant activity of some new thiazolidin-4-ones in MCF-7 cells” (Med Chem Res, 2013).
